Measured values as given in ChEMBL document CHEMBL2331425, “Triazolo and imidazo dihydropyrazolopyrimidine potassium channel antagonists” (Bioorg Med Chem Lett, 2013).
Blank lines part the entries; values can stand above or below the compound they belong to.

What was measured:
[1] = target: T1, Potassium voltage-gated channel subfamily A member 5 (Homo sapiens, UniProt P22460); assay: Antagonist activity at human Kv1.5 expressed in mouse L929 cells assessed as inhibition of delayed rectifier repolarization current at 0.3 uM by patch clamp assay relative to control; assay type: cell-based
T1 sequence (P22460 whole entry): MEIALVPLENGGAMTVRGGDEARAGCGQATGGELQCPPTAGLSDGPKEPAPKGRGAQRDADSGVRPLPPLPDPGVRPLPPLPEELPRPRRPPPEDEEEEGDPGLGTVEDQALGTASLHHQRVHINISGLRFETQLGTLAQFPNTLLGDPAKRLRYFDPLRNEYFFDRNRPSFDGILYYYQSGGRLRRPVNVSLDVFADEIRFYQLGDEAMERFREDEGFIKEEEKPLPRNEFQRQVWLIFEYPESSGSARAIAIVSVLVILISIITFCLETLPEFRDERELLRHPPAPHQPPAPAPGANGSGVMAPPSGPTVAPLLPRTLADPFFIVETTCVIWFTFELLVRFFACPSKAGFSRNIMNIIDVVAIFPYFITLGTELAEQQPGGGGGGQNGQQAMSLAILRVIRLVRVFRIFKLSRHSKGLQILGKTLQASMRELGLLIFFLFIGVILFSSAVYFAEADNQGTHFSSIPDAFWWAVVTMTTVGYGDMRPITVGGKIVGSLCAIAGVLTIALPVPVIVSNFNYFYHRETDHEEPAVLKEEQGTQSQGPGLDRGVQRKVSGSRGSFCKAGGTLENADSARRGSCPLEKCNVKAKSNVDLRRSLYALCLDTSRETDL

[2] = Clearance in Sprague-Dawley rat at 1 mg/kg, iv; assay type: ADME, organism-based; design: dose 1 mg/kg, route intravenous; conditions: in vivo
[3] = Half life in Sprague-Dawley rat at 1 mg/kg, iv; assay type: ADME, organism-based; design: dose 1 mg/kg, route intravenous; conditions: in vivo
[4] = target: T1, Potassium voltage-gated channel subfamily A member 5; assay: Antagonist activity at human Kv1.5 expressed in mouse L929 cells assessed as inhibition of delayed rectifier repolarization current by patch clamp assay; assay type: cell-based
[5] = target: Voltage-gated L-type calcium channel (Homo sapiens, UniProt Q13936+Q13698+Q01668+O60840); assay: Inhibition of L-type calcium channel (unknown origin)
[6] = Inhibition of sodium channel (unknown origin); design: species or system Homo sapiens
[7] = Drug uptake in Sprague-Dawley rat brain at 0.3 mg/kg, iv administered as 5 mins infusion measured after 10 mins; assay type: ADME, organism-based; design: dose 0.3 mg/kg, route intravenous; conditions: read-out: Drug uptake
[8] = Plasma concentration in Sprague-Dawley rat at 0.3 mg/kg, iv administered as 5 mins infusion measured after 10 mins; assay type: ADME, organism-based; design: dose 0.3 mg/kg, route intravenous
[9] = Plasma concentration in Sprague-Dawley rat at 0.3 mg/kg, iv administered as 5 mins infusion measured at 5 mins; assay type: ADME, organism-based; design: dose 0.3 mg/kg, route intravenous
Rattus norvegicus [10] = assay: Antiarrhythmic activity in Sprague-Dawley rat assessed as decrease in ventricular effective refractory period at 0.3 mg/kg, iv administered as 5 mins infusion measured after 5 mins relative to control; assay type: functional, Heart; design: scale not given: the % may be the effect or the level left
Rattus norvegicus [11] = assay: Antiarrhythmic activity in Sprague-Dawley rat assessed as decrease in QT interval at 0.3 mg/kg, iv administered as 5 mins infusion measured after 5 mins relative to control; assay type: functional, Heart; design: scale not given: the % may be the effect or the level left
Rattus norvegicus [12] = assay: Antiarrhythmic activity in Sprague-Dawley rat assessed as increase in heart rate at 0.3 mg/kg, iv administered as 5 mins infusion measured after 5 mins relative to control; assay type: functional
Rattus norvegicus [13] = assay: Antiarrhythmic activity in Sprague-Dawley rat assessed as decrease in blood pressure at 0.3 mg/kg, iv administered as 5 mins infusion measured after 5 mins; assay type: functional; design: scale not given: the % may be the effect or the level left
Cytochrome P450 3A4 = Cytochrome P450 3A4 (Homo sapiens, UniProt P08684); assay: Inhibition of CYP3A4 (unknown origin); assay type: ADME
Sequence of Cytochrome P450 3A4 (P08684 whole entry): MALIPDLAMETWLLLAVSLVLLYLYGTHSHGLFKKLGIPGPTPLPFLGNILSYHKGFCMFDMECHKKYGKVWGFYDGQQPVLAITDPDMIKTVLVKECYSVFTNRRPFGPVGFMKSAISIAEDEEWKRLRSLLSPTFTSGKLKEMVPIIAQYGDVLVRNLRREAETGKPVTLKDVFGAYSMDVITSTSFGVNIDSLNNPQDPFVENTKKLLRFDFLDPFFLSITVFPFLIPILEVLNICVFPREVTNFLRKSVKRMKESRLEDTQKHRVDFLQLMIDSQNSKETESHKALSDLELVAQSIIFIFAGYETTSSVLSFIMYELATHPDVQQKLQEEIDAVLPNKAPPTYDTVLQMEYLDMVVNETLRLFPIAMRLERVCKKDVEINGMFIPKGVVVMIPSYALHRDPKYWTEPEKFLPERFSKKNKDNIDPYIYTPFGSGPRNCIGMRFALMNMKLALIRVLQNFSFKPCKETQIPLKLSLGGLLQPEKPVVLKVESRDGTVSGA

Cytochrome P450 2D6 = Cytochrome P450 2D6 (Homo sapiens, UniProt P10635); assay: Inhibition of CYP2D6 (unknown origin); assay type: ADME
Sequence of Cytochrome P450 2D6 (P10635 whole entry): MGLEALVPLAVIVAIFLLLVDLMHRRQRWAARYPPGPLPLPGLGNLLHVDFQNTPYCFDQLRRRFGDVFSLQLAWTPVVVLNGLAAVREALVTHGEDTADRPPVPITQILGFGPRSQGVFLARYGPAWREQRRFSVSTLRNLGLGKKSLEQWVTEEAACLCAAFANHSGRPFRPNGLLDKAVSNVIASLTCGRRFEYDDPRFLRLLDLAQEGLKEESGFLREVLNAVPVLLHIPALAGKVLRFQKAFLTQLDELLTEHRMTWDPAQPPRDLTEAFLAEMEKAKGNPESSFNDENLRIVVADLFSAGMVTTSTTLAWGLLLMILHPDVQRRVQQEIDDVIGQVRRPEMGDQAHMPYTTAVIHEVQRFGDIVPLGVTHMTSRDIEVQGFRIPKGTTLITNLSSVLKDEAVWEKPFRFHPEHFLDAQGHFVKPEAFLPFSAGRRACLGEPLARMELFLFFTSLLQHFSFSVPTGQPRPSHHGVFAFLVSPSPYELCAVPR

Cytochrome P450 2C19 = Cytochrome P450 2C19 (Homo sapiens, UniProt P33261); assay: Inhibition of CYP2C19 (unknown origin); assay type: ADME
Sequence of Cytochrome P450 2C19 (P33261 whole entry): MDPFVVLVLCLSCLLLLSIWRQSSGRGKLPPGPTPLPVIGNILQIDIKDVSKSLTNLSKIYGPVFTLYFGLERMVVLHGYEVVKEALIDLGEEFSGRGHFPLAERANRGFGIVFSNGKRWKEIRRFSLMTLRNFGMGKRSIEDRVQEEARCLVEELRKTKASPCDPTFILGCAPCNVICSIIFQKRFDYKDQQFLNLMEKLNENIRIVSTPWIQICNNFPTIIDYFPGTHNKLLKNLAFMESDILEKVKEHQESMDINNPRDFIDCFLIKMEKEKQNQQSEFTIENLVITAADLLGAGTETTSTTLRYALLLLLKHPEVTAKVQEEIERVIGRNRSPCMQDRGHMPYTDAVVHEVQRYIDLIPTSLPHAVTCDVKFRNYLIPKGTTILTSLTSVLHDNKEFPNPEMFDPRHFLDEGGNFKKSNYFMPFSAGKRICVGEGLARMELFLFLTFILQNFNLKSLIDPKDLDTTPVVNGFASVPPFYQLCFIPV

Cytochrome P450 2C9 = Cytochrome P450 2C9 (Homo sapiens, UniProt P11712); assay: Inhibition of CYP2C9 (unknown origin); assay type: ADME
Sequence of Cytochrome P450 2C9 (P11712 whole entry): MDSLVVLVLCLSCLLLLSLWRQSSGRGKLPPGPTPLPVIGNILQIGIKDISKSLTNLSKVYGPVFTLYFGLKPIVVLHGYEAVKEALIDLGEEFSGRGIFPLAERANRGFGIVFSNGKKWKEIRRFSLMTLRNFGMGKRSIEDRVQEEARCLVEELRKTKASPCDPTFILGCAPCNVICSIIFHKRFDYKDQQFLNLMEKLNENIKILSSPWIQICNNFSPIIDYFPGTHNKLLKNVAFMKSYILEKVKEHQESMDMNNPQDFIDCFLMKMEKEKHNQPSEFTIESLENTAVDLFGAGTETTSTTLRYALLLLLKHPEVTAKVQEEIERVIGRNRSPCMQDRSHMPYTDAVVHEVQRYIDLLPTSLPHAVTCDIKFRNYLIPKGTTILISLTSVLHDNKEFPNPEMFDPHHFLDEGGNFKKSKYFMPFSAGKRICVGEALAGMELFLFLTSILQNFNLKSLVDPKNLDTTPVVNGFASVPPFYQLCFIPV

[14] = target: T2, Nuclear receptor subfamily 1 group I member 2 (Homo sapiens, UniProt O75469); assay: Transactivation of PXR (unknown origin)
T2 sequence (O75469 whole entry): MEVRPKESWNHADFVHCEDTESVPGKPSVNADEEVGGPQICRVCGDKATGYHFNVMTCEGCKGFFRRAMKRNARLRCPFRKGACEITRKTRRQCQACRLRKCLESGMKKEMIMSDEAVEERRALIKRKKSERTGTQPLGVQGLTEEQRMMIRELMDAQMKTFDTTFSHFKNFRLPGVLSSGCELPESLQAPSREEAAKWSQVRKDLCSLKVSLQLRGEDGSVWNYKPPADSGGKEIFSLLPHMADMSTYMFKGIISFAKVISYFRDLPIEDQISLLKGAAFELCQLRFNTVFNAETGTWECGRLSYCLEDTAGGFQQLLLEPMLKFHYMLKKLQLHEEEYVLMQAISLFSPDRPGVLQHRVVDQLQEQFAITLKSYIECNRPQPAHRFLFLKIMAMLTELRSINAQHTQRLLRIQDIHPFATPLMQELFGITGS

hERG (KCNH2) = hERG (KCNH2) (Homo sapiens, UniProt Q12809); assay: Inhibition of human ERG current in HEK293 cells at 10 uM by patch clamp method relative to control; assay type: cell-based; conditions: HEK293 cells expressing human ERG
Sequence of hERG (KCNH2) (Q12809 whole entry): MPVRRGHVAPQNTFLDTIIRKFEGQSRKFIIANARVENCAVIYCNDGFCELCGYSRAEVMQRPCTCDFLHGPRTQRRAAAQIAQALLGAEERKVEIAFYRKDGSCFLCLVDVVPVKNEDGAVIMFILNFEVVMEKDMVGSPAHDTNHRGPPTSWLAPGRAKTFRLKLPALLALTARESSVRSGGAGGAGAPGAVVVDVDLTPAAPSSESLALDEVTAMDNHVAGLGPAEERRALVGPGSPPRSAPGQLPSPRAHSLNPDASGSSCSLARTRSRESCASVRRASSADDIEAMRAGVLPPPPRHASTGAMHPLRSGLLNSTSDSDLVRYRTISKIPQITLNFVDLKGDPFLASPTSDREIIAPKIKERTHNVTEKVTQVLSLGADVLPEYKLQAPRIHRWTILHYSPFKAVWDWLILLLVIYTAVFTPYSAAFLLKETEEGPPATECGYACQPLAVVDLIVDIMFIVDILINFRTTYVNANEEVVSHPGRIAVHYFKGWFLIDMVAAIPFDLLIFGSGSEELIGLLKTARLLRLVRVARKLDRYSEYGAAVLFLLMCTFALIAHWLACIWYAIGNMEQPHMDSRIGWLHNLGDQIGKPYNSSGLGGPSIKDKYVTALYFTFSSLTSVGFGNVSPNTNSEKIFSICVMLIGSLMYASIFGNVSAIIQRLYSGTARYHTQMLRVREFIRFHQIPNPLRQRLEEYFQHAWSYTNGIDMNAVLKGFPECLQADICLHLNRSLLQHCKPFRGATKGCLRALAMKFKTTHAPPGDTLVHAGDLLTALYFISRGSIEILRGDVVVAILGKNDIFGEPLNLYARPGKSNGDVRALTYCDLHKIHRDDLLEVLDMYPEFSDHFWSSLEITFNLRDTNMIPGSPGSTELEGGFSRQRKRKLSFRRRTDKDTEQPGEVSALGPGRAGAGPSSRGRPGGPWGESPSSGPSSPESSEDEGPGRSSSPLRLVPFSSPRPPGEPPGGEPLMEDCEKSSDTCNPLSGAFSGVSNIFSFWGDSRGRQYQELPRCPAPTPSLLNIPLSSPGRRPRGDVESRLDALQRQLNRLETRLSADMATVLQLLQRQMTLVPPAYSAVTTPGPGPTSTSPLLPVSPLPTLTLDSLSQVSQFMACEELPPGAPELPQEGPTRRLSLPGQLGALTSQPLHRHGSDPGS

[15] = target: Voltage-gated inwardly rectifying potassium channel KCNH2 (Homo sapiens, UniProt Q12809); assay: Inhibition of human ERG current in HEK293 cells by patch clamp method; assay type: cell-based
Sequence of Voltage-gated inwardly rectifying potassium channel KCNH2 (Q12809 whole entry): as above

inhibition [1]: 23%
SMILES: CC1=C(c2ncn(-c3ccccc3F)n2)[C@@H](c2ccc(Cl)c(Cl)c2)n2nc(C)cc2N1

clearance [2]: 134 mL/min/kg
half-life [3]: 36 min
SMILES: CC1=C(C(=O)N2CCN(c3ccc(F)cc3)CC2)[C@@H](c2ccc(Cl)c(Cl)c2)n2nccc2N1

IC50 [4]: 223 nM
SMILES: CC1=C(c2ncnn2C(C)(C)C)[C@@H](c2ccc(Cl)c(Cl)c2)n2nccc2N1

inhibition [1]: 14%
SMILES: CC1=C(c2ncn(-c3ccc(C)cc3)n2)[C@@H](c2ccc(Cl)c(Cl)c2)n2nc(C)cc2N1

IC50 [5]: 5.2 µM
IC50 [6]: 46 µM
concentration at 10 min [7]: 30 nM
concentration at 10 min [8]: 430 nM
concentration at 5 min [9]: 1600 nM
clearance [2]: 29 mL/min/kg
half-life [3]: 72 min
INH (Cytochrome P450 3A4): 40 µM
INH (Cytochrome P450 2D6): 22 µM
INH (Cytochrome P450 2C19): 6 µM
INH (Cytochrome P450 2C9): 7 µM
EC20 [14]: 5 µM
IC50 [4]: 133 nM
SMILES: CC1=C(c2ncnn2C2CCC(C(F)(F)F)CC2)[C@@H](c2ccc(Cl)c(Cl)c2)n2nc(C(F)(F)F)cc2N1 (single isomer, unassigned; isomer 1)
Activity (Rattus norvegicus [10]): 25%
Activity (Rattus norvegicus [11]): 8%
Activity (Rattus norvegicus [12]): 6%
Activity (Rattus norvegicus [13]): 28%
inhibition at 10 µM (hERG (KCNH2)): 38%

EC20 [14]: 0.11 µM
IC50 [4]: 128 nM
SMILES: CCn1ccnc1C1=C(C)Nc2cc(C(F)(F)F)nn2[C@@H]1c1ccc(Cl)c(Cl)c1

EC20 [14]: 0.44 µM
IC50 [4]: 211 nM
SMILES: CC1=C(c2ncnn2-c2cccc(C)n2)[C@@H](c2ccc(Cl)c(Cl)c2)n2nc(C(F)(F)F)cc2N1

IC50 [4]: 191 nM
SMILES: CCn1ncnc1C1=C(C)Nc2ccnn2[C@@H]1c1ccc(Cl)c(Cl)c1

IC50 [4]: 59 nM
SMILES: CC1=C(c2ncnn2C2CCCCC2)[C@@H](c2ccc(Cl)c(Cl)c2)n2nccc2N1
inhibition at 10 µM (hERG (KCNH2)): 87%

inhibition [1]: 14%
SMILES: COc1cccc(-n2cnc(C3=C(C)Nc4cc(C)nn4[C@@H]3c3ccc(Cl)c(Cl)c3)n2)c1

clearance [2]: 45 mL/min/kg
half-life [3]: 36 min
EC20 [14]: 0.64 µM
IC50 [4]: 98 nM
SMILES: CCOCCn1ccnc1C1=C(C)Nc2cc(C(F)(F)F)nn2[C@@H]1c1ccc(Cl)c(Cl)c1

EC20 [14]: 0.44 µM
IC50 [4]: 410 nM
SMILES: CC1=C(c2ncnn2-c2cc(C)ccn2)[C@@H](c2ccc(Cl)c(Cl)c2)n2nc(C(F)(F)F)cc2N1

IC50 [4]: 37 nM
SMILES: CC1=C(c2ncnn2C2CCCC2)[C@@H](c2ccc(Cl)c(Cl)c2)n2nccc2N1
INH [15]: 6 µM

clearance [2]: 63 mL/min/kg
half-life [3]: 54 min
EC20 [14]: 0.11 µM
IC50 [4]: 204 nM
SMILES: CC1=C(c2nccn2C(C)C)[C@@H](c2ccc(Cl)c(Cl)c2)n2nc(C(F)(F)F)cc2N1

IC50 [4]: 127 nM
SMILES: CC1=C(c2ncnn2C2CCCCC2)[C@@H](c2ccc(Cl)c(Cl)c2)n2nc(C)cc2N1

inhibition [1]: 25%
SMILES: CC1=C(c2ncnn2-c2ccc(C)cc2)[C@@H](c2ccc(Cl)c(Cl)c2)n2nc(C)cc2N1

inhibition [1]: 8%
SMILES: CC1=C(c2ncn[nH]2)[C@@H](c2ccc(Cl)c(Cl)c2)n2nccc2N1

IC50 [4]: 48 nM
SMILES: CC1=C(c2ncnn2C2CCC2)[C@@H](c2ccc(Cl)c(Cl)c2)n2nccc2N1

IC50 [4]: 722 nM
SMILES: CC1=C(c2ncn(-c3ccccc3C)n2)[C@@H](c2ccc(Cl)c(Cl)c2)n2nc(C)cc2N1

IC50 [4]: 200 nM
SMILES: CC1=C(c2ncnn2CC(F)(F)F)[C@@H](c2ccc(Cl)c(Cl)c2)n2nccc2N1

IC50 [4]: 283 nM
SMILES: CC1=C(c2ncnn2C2CCC2)[C@@H](c2ccc(Cl)c(Cl)c2)n2nc(C(C)(C)C)cc2N1

IC50 [4]: 229 nM
SMILES: CC1=C(c2ncnn2CC2CC2)[C@@H](c2ccc(Cl)c(Cl)c2)n2nccc2N1

EC20 [14]: 1.1 µM
IC50 [4]: 223 nM
SMILES: CCOc1cccc(-n2ncnc2C2=C(C)Nc3cc(C(F)(F)F)nn3[C@@H]2c2ccc(Cl)c(Cl)c2)n1
